# Laboratory results from publication PMC3314937, “Identifying improved TSPO PET imaging probes through biomathematics: The impact of multiple TSPO binding sites in vivo” (Neuroimage, 2012).
# Like-named read-outs stand apart in the source and are kept apart here. Marks after values point to notes of the source that are not given here.
# Tests used:
# TSPO [1] = system: TSPO; set-up: method as in Owen et al. (2010, 2011); details: 37 °C, ref Owen et al. (2010, 2011), cited from earlier work; for Bmax-H: HABs, ^3H-PBR28 values also used for PBR111 and DPA713, ^3H-PK11195 for PK11195; for Bmax-L: LABs; for Bmax-M: MABs, both high and low affinity sites, Bmax_H used for PK11195
# in vitro = details: Landrace, pig, pH 7.4
# Method: (§1) The fP and fND were measured from Landrace pig tissue (blood and brain — obtained from Charles River Laboratories, Tranent, Scotland) using equilibrium dialysis ([Summerfield et al., 2006]). In brief, the cold test compounds were spiked into plasma or brain homogenate at a concentration of 1 μg/g and dialysed against phosphate buffered saline (PBS, pH 7.4) for 5 h at 37 °C. Aliquots (20–50 μL) of plasma, brain and dialysate were taken and extracted using acetonitrile containing internal standard, followed by LC–MS/MS analysis. The free fractions were determined as the concentration ratio of analyte in dialysate to that in plasma or brain.
# [2] = equilibrium dialysis, free fractions in plasma and brain tissue; details: 1 μg/g, dialysis against PBS pH 7.4, 5 h, 37 °C
# Method: as §1
# TSPO [3] = test: competition assays with ^3H-PK11195 for each binding class; set-up: species or system human
# TSPO [4] = details: ^3H-PK11195, 37 °C, ref Owen et al. (2010, 2011), cited from earlier work
Structure (SMILES),Bmax-H (TSPO [1]),Bmax-L (TSPO [1]),Bmax-M (TSPO [1]),"fraction unbound at 5 h, 1 μg/g (in vitro; brain homogenate)","fraction unbound at 5 h, 1 μg/g (in vitro; plasma)",fND (free fraction in tissue) ([2]; pig brain homogenate),fp (free fraction in plasma) ([2]; pig plasma),affinity ratio (high:low binding site) (TSPO [3]),"Ki (TSPO [4]; high affinity site (HABs), read-out: Ki-H)","Ki (TSPO [4]; low affinity site (LABs), read-out: Ki-L)"
CC[C@@H](C)N(C)C(=O)c1cc2ccccc2c(-c2ccccc2Cl)n1 [^11C-(R)-PK11195],433 ± 154 (n = 9) nM,506 ± 131 (n = 5) nM,433 ± 154 ^b (n = 9) nM,0.01 ± 0.002,0.14 ± 0.039,,,,,
CCN(CC)C(=O)Cc1c(-c2ccc(OCCC[18F])cc2)nc2ccc(Cl)cn12 [^18F-PBR111],193 ± 66 (n = 6) nM,99.4 ± 35 (n = 5) nM,186 ± 37 (n = 4) nM,,,0.06 ± 0.005 (n = 6),0.19 ± 0.018 (n = 6),~ 4,,
CCN(CC)C(=O)Cc1c(-c2ccc(OCCCF)cc2)nc2ccc(Cl)cn12 [^18F-PBR111],,,,,,,,,15.6 ± 3.7 nM,61.8 ± 10.7 nM
CCN(CC)C(=O)Cc1c(-c2ccc(O[11CH3])cc2)nn2c(C)cc(C)nc12 [^11C-DPA713],193 ± 66 (n = 6) nM,99.4 ± 35 (n = 5) nM,186 ± 37 (n = 4) nM,,,,,,,
